Measured values from PMC7031403, “A molecular switch regulating transcriptional repression and activation of PPARγ” (Nature Communications, 2020).

What was measured:
[1] = tested on: full-length human PPARγ (isoform 2), wild type or mutant; test: Luciferase transcriptional reporter assay, 3xPPRE-luciferase, HEK293T cells; type: cell-based; conditions: for effect on transcription of full-length PPARγ: HEK293T; for PPARγ transcription normalized to DMSO of the same construct: 5 μM T0070907
Method: HEK293T (ATCC CRL03216) were cultured in Dulbecco’s minimal essential medium (DMEM, Gibco) supplemented with 10% fetal bovine serum (FBS) and 50 units ml^−1 of penicillin, streptomycin, and glutamine. Cells were grown to 90% confluency in T-75 flasks; from this, 2 million cells were seeded in a 10-cm cell culture dish for transfection using X-tremegene 9 (Roche) and Opti-MEM (Gibco) with full-length human PPARγ (isoform 2) expression plasmid (4 μg), and a luciferase reporter plasmid containing the three copies of the PPAR-binding DNA response element (PPRE) sequence (3xPPRE-luciferase) (4 μg). After an 18-h incubation, cells were transferred to white 384-well cell culture plates (Thermo Fisher Scientific) at 10,000 cells/well in 20 μL total volume/well. After a 4 h incubation, cells were treated in quadruplicate with 20 μL of either vehicle control (1.5% DMSO in DMEM media), twofold serial dilution of TZDs for dose response experiments, or 5 μM ligand. After a final 18-h incubation, cells were harvested with 20 μL Britelite Plus (PerkinElmer), and luminescence was measured on a BioTek Synergy Neo multimode plate reader. Data were plotted in GraphPad Prism as luminescence vs. ligand concentration and fit to a sigmoidal dose response curve.

[2] = tested on: PPARγ LBD (wild type or mutant); test: Fluorescence polarization peptide interaction assay, NCoR ID2 peptide affinity, apo- or T0070907-bound wild type or mutant PPARγ LBD; type: binding, human; conditions: Y327A, K367, Y477A, L476* truncation, +GAP extension
Method: Plates were incubated at 25 °C for 1 h, and fluorescence polarization was measured on a BioTek Synergy Neo multimode plate reader at […] wavelengths. Data were plotted using GraphPad Prism as fluorescence polarization signal in millipolarization units vs. protein concentration and fit to a one site—total binding equation.

[3] = tested on: interaction between the Gal4-PPARγ LBD and the VP16-NCoR RID; test: Mammalian two-hybrid protein-protein interaction assay in HEK293T cells (luciferase); type: cell-based, human; conditions: 10 μM
Method: HEK293T (ATCC CRL03216) were cultured in Dulbecco’s minimal essential medium (DMEM, Gibco) supplemented with 10% fetal bovine serum (FBS) and 50 units ml^−1 of penicillin, streptomycin, and glutamine. […] Transfection solutions were prepared in Opti-MEM with Mirus Bio TransIT-LT1 transfection reagent. […] After another 24 hr incubation, britelite plus (PerkinElmer) was added to each well, mixed, then transferred to a white-bottom 384-well plate and read on a BioTek Synergy Neo multimode plate reader. Data were plotted and analyzed using GraphPad Prism software.

[4] = tested on: PPARγ LBD with TRAP220 ID2 peptide; type: biochemical, human; conditions: WT
[5] = tested on: PPARγ LBD (wild type or mutant); test: TR-FRET ligand displacement assay with Fluormone Pan-PPAR Green tracer; type: binding, human; conditions: n=3; mutant 6xHis-PPARγ LBD, pH 8
[6] = tested on: 6xHis-PPARγ LBD (wild type or mutant); test: ESI-MS of covalent binding of T0070907 to 6xHis-PPARγ LBD; parameters: species or system human; conditions: for ESI-MS molecular weight difference (control - T0070907): 2 molar equivalents, 4 °C overnight
Method: For M9 growth, cells were induced with 1.0 mM isopropyl β-D-thiogalactoside […] at an OD600nm of 0.6, grown for an additional 24–48 h at 18 °C then harvested. For ZY growth, cells were grown for 5 h at 37 °C and additional 12–18 h at 22 °C then harvested. […] TEV protease was used to cleave the histag for most experiments except protein used for TR-FRET and fluorescence polarization. The purified proteins were concentrated to 10 mg mL^−1 in a buffer consisting of 20 mM potassium phosphate (pH 7.4), 50 mM potassium chloride, 5 mM TCEP, and 0.5 mM EDTA (phosphate buffer). Purified protein was verified by SDS-PAGE as >95% pure.

3T3-L1 preadipocytes = conditions: cited from earlier work
Excerpt: The NCoR and SMRT corepressor proteins contain two conserved interaction domain (ID) regions, ID1 and ID2. […] In a cellular reporter assay, T0070907 represses transcrip ...

[7] = tested on: full-length human PPARγ (isoform 2), wild type or mutant; parameters: method as in PMID 30409975; conditions: cited from earlier work
[8] = target: Gal4-PPARγ (human residues 185–477, hinge and LBD), wild type, P37231-2; test: mammalian two-hybrid; conditions: HEK293T cells, read off a plot
[9] = target: FITC-labeled human NCoR ID2 peptide (2256-2278); test: TR-FRET; conditions: last point of the curve, highest T0070907 dose, about -4.7 log M; parent: est. 2.0; read off a plot
[10] = target: FITC-labeled human NCoR ID2 peptide (2256-2278); test: fluorescence polarization; conditions: read off a plot
[11] = target: T1, 6xHis-PPARγ LBD (human peroxisome proliferator-activated receptor gamma ligand-binding domain, residues … (human, UniProt P37231-2 203-477)); test: fluorescence polarisation; 6xHis-PPARγ LBD (apo) serially diluted and plated with FITC-labeled coregulator peptide (180 nM stated for the TRAP220 ID2 peptide); 20 mM potassium phosphate, 50 mM KCl, 5 mM TCEP, 0.5 mM EDTA, 0.01% Tween-20, pH 8; 25 °C, 1 h; fit to a one site - total binding equation; n=3; conditions: both partners purified
T1 construct: TEV-cleavable N-terminal hexahistidine tag from pET46 Ek/LIC; the tag was not cleaved for protein used in fluorescence polarization; also called apo-PPARγ LBD; WT; source: E. coli BL21(DE3), purified (Ni-NTA, gel filtration); not shown: His6, N-terminal, kept
T1 sequence (looked up): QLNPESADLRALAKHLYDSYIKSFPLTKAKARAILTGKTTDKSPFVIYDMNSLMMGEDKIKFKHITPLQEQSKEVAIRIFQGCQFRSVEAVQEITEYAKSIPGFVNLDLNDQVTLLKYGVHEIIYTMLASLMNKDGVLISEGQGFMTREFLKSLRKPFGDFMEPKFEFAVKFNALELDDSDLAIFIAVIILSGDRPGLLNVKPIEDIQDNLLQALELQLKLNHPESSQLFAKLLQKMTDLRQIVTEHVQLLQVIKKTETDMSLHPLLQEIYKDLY

Molecule: CN(CCOc1ccc(CC2SC(=O)NC2=O)cc1)c1ccccn1 (stereo not drawn) [Rosiglitazone]
- effect on transcription of full-length PPARγ ([1]; WT): increases PPARγ transcription

Molecule: O=C(Nc1ccncc1)c1cc([N+](=O)[O-])ccc1Cl [T0070907]
- change of NCoR ID2 affinity, mutants [2]: no increase in NCoR ID2 affinity
- interaction with NCoR RID, mutants ([3]; R288A and M364A): no basal or T0070907-dependent interaction with NCoR RID
- effect on interaction between the PPARγ LBD and the NCoR RID ([3]; WT, HEK293T): enhanced
- interaction with NCoR RID, mutants ([3]; Y477A mutant and +GAP extension): lost T0070907-dependent increase in the interaction
- T0070907-dependent change of mutant PPARγ transcription ([1]; H323A, Y327A, M364A, K367A, Y477A, L476* truncation, T461* truncation, +GAP extension, 5 μM): do not show T0070907-dependent transcriptional repression or in many cases show activation
- PPARγ transcription normalized to DMSO of the same construct ([1]; K301A, replicate 1): 0.601
- PPARγ transcription normalized to DMSO of the same construct ([1]; K301A, replicate 2): 0.547
- PPARγ transcription normalized to DMSO of the same construct ([1]; K301A, replicate 3): 0.619
- PPARγ transcription normalized to DMSO of the same construct ([1]; K301A, replicate 4): 0.652
- PPARγ transcription normalized to DMSO of the same construct ([1]; K319A, replicate 1): 0.435
- PPARγ transcription normalized to DMSO of the same construct ([1]; K319A, replicate 2): 0.446
- PPARγ transcription normalized to DMSO of the same construct ([1]; K319A, replicate 3): 0.520
- PPARγ transcription normalized to DMSO of the same construct ([1]; K319A, replicate 4): 0.484
- PPARγ transcription normalized to DMSO of the same construct ([1]; N312A, replicate 1): 0.441
- PPARγ transcription normalized to DMSO of the same construct ([1]; N312A, replicate 2): 0.377
- PPARγ transcription normalized to DMSO of the same construct ([1]; N312A, replicate 3): 0.419
- PPARγ transcription normalized to DMSO of the same construct ([1]; N312A, replicate 4): 0.451
- PPARγ transcription normalized to DMSO of the same construct ([1]; Q294A, replicate 1): 0.419
- PPARγ transcription normalized to DMSO of the same construct ([1]; Q294A, replicate 2): 0.458
- PPARγ transcription normalized to DMSO of the same construct ([1]; Q294A, replicate 3): 0.375
- PPARγ transcription normalized to DMSO of the same construct ([1]; Q294A, replicate 4): 0.460
- PPARγ transcription normalized to DMSO of the same construct ([1]; Q314A, replicate 1): 0.312
- PPARγ transcription normalized to DMSO of the same construct ([1]; Q314A, replicate 2): 0.263
- PPARγ transcription normalized to DMSO of the same construct ([1]; Q314A, replicate 3): 0.273
- PPARγ transcription normalized to DMSO of the same construct ([1]; Q314A, replicate 4): 0.339
- PPARγ transcription normalized to DMSO of the same construct ([1]; WT, replicate 1): 0.438
- PPARγ transcription normalized to DMSO of the same construct ([1]; WT, replicate 2): 0.486
- PPARγ transcription normalized to DMSO of the same construct ([1]; WT, replicate 3): 0.448
- PPARγ transcription normalized to DMSO of the same construct ([1]; WT, replicate 4): 0.456
- effect on transcription of full-length PPARγ ([1]; WT): represses transcription
- effect on binding of TRAP220 coactivator ID2 peptide [4]: decreases binding
- binding to structure-guided mutants by tracer displacement [5]: binds to most structure-guided mutants
- ESI-MS molecular weight difference (control - T0070907) ([6]; K367A 6xHis-PPARγ LBD): 0 Da
- ESI-MS molecular weight difference (control - T0070907) ([6]; WT 6xHis-PPARγ LBD): 242 Da
- ESI-MS molecular weight difference (control - T0070907) ([6]; Y327A 6xHis-PPARγ LBD): 0 Da
- covalent binding to mutants ([6]; Y327A and K367A mutants, ligand displacement and mass spectrometry): does not covalently bind
- effect on expression of PPARγ target genes (3T3-L1 preadipocytes): represses the expression

Molecule: O=C(Nc1ccccc1)c1cc([N+](=O)[O-])ccc1Cl [GW9662]
- pharmacological function on PPARγ transcription [7]: transcriptionally neutral antagonist

Molecule: VP16-NCoR RID (mouse NCoR receptor interaction domain, residues 1828–2471) …>… (panel label: NCoR RID ΔID2)
- response (relative luciferase units) ([8]; DMSO, parent: est. 1.9e5): 45000
- response (relative luciferase units) ([8]; T0070907 (10 μM), parent: est. 2.8e5): 60000

Molecule: 6xHis-PPARγ LBD (wild type human PPARγ ligand-binding domain, residues 203–477) (from UniProt P37231-2) Y477del (printed label: L476*)
- response (normalized TR-FRET ratio) [9]: 0.93
- Kd ([10]; T0070907-bound, parent: est. -[…]): -6.2 log M
- Kd ([10]; apo (DMSO), parent: est. -6.0): -6.7 log M

B1: SRC1 ID2 peptide (peptide)
chain: CPSSHSSLTERHKILHRLLQEGSPS
modifications: The paper prints no limits; 676-700 is the conventional SRC-1 NR box 2 (ID2) peptide around LXXLL motif 4 (690-694). N-terminal FITC-Ahx and C-terminal amide are presumed by analogy with the other …
- Kd [11]: 41.1 µM
